Test results from patent US7238723B2, “Indole derivatives” (Pfizer Inc., priority 2003, dated 2007).
Structures can show the parent of a compound that is named as a salt.

Assays:
[1] = Moisture sorption by Dynamic Vapour Sorption (DVS); type: physicochemical; settings: 30° C.
Method: The moisture sorption of eletriptan hydrobromide monohydrate was determined using a Dynamic Vapour Sorption (DVS) Automated Sorption Analyser Model DVS-1 instrument manufactured by Surface Measurements Systems Ltd., UK.
Approximately 25 mg of eletriptan hydrobromide monohydrate was accurately weighed into a sample pan. This was exposed to humidities in the range of from 0 to 90% RH. The analysis was carried out in detail in the range of from 0 to 15% RH, using 15% RH steps in the range of from 15 to 90% RH. The analysis temperature was 30° C. with a nitrogen flow rate of 200 cm^3min^−1.
Once the monohydrate has formed there is very little additional moisture sorbed and within the range 10 to 90% RH less than 0.3% w/w of water is sorbed.

[2] = Storage stability of the drug substance, HPLC analysis; type: physicochemical; settings: double polyethylene bags inside a fibreboard drum
Method: • 1) Eletriptan hydrobromide monohydrate was stored in double polyethylene bags inside a fibreboard drum under the following conditions: • 25° C./60% RH for 9 months • 30° C./60% RH for 9 months • 40° C./75% RH for 6 months • (RH=relative humidity)

[3] = on further processing; cited from earlier work
[4] = 4 weeks at 40° C. and 90% relative humidity; cited from earlier work

Structure (SMILES)	hygroscopicity ([1]; 0 to 90% RH)	hydrate state ([1]; above 6% RH)	water lost (water of the monohydrate) ([1]; at 0% RH) [% w/w]	water sorbed ([1]; within the range 10 to 90% RH)	degradation on storage (HPLC) ([2]; 25° C./60% RH for 9 months)	degradation on storage (HPLC) ([2]; 30° C./60% RH for 9 months)	degradation on storage (HPLC) ([2]; 40° C./75% RH for 6 months)	stability of the solid form [3]	water absorbed on standing [4] [% by weight]
CN1CCC[C@@H]1Cc1c[nH]c2ccc(CCS(=O)(=O)c3ccccc3)cc12 [eletriptan hydrobromide monohydrate]	essentially non-hygroscopic	remains as a monohydrate	3.8	less than 0.3 % w/w	no degradation had occurred	no degradation had occurred	no degradation had occurred	–	–
Br.CN1CCC[C@@H]1Cc1c[nH]c2ccc(CCS(=O)(=O)c3ccccc3)cc12 [anhydrous eletriptan hydrobromide]	–	–	–	–	–	–	–	unstable and to undergo polymorphic conversion to the alpha-form	≤ 1.23
